Measurements: patent US20260138981A1, “DIHYDROFOLATE REDUCTASE INHIBITORS FOR ANTI-BIOTIC RESISTANT INFECTIONS” (THE TRUSTEES OF PRINCETON UNIVERSITY, priority 2022, published 2026)

Legend:
WI-38 cells = experiment: Mammalian cell cytotoxicity (CyQUANT); assay type: cell-based; details: 72 hours
Experimental: FIG. 5D provides IC50 of fluorofolin against in vitro mammalian cell lines relative to the IC50 of IRS-16. HLF: human lung fibroblast, HK-2: human kidney epithelial, PBMC: peripheral blood mononuclear cell, WI-38: Embryonic lung tissue.
After 24 hours, DMSO or compounds were added in 3-fold dilutions and incubated for 72 hours. For PBMC, CellTiter-Glo Reagent was added in equal volume and incubated for 30 min after which luminescence was read. For other cell types, CyQUANT Detection Reagent was added in equal volume and incubated for 1 hour after which fluorescence was read with standard green filter set (508/527 nm ex). Cell toxicity was evaluated by Pharmaron, Inc. (Beijing, […]).

[1] = Maximum tolerated dose (MTD); assay type: in vivo, mouse; details: administered subcutaneously (SC), CD-1 mice
Experimental: P. aeruginosa thigh infection model and MTD studies: Care and handling of Female 5-6-week-old CD-1 conformed to institutional animal care and use policies as carried out at University of North Texas Health Science Center (Fort Worth, Texas). Rodents were fed either base chow or base diet supplemented with 1.8 g/kg thymidine (Sigma T9250) obtained from Envigo starting two days before infection.
MTD was determined through administration of compounds at increasing dosage until the maximum dose before adverse reactions were observed. Doses were increased in a stepwise manner from 1 mg/kg to 5, 10, 25, 50 mg/kg. […] MTD was evaluated by the University of North Texas Health Science Center (Fort Worth, Texas).

E. coli MG1655 = experiment: Growth with TMI supplementation; assay type: cell-based; details: E. coli MG1655, fluorofolin 2×MIC, 0.3 mM thymine, methionine, inosine
Experimental: FIGS. 3A and 3B characterize the growth of E. coli MG1655 and P. aeruginosa PA14 respectively in 0.3 mM thymine, methionine, and inosine (TMI) supplemented media and treated with fluorofolin at 2×MIC or DMSO. Curves represent optical at 600 nm (OD600) of 2 biological replicates. Mean±SD are shown.
(§1) Where listed, growth media were prepared according manufacturer recommendations: LB Broth and LB Broth supplemented with 0.3 mM thymine (BD Biosciences 244610, Alfa Aesar A15879), 0.3 mM methionine (Sigma-Aldrich M9625), 0.3 mM inosine (EMD Millipore 4060), Mueller Hinton II Broth (Cation-Adjusted)/(CAMHB) (BD 212322) or 0.3 mM thymidine (Sigma-Aldrich T1895), Gutnick Minimal Media (1.0 g/L K2SO4, 13.5 g/L K2HPO4, 4.7 g/L KH2PO4, 0.1 g/L of MgSO4-7H2O, 10 mM NH4Cl as a nitrogen source, and 0.4% w/v glucose as a carbon source)^62.

E. coli lptd34213 = experiment: Growth with thymidine supplementation; assay type: cell-based; details: fluorofolin 50 μg/mL, 0.3 mM thymidine; also with SMX
Experimental: FIG. 6F quantifies P. aeruginosa PA14 or E. coli lptd4213 treated with fluorofolin 50 μg/mL in the presence or absence of 0.3 mM thymidine.
FIG. 6G quantifies E. coli lptd4213 treated with fluorofolin 50 μg/mL and SMX (78.1 μg/mL) in the presence or absence of 0.3 mM thymidine or 0.3 mM TMI supplementation, Curves represent optical at 600 nm (OD600) of 2 biological replicates. Mean±SD are shown.
as §1

Nc1nc(N)c2c(ccc3c2ccn3Cc2ccnc(F)c2)n1 [fluorofolin]
increase in IC50 compared to IRS-16 (WI-38 cells): 58.5 fold | maximum tolerated dose [1]: 25 mg/kg | rescue of growth inhibition by TMI supplementation (E. coli MG1655): could also be rescued | rescue of growth inhibition by thymidine supplementation alone (E. coli lptd34213): Rescue from fluorofolin inhibition was also shown
